Results: US20250230193A1, “CYCLIC COMPOUND HAVING SELECTIVE KRAS INHIBITORY EFFECT ON HRAS AND NRAS” (CHUGAI SEIYAKU KABUSHIKI KAISHA, priority 2022, published 2025)

Legend:
[1] = target: GDP-bound NRAS wild-type protein (Homo sapiens, UniProt P01111); assay: Binding to NRAS by surface plasmon resonance (SPR), Single Cycle Kinetics; conditions: KD ratio, GDP-bound NRAS wild-type vs GDP-bound KRAS wild-type, SPR
[2] = target: GDP-bound HRAS wild-type protein (Homo sapiens, UniProt P01112); assay: Binding to HRAS by surface plasmon resonance (SPR), Single Cycle Kinetics; conditions: KD ratio, GDP-bound HRAS wild-type vs GDP-bound KRAS wild-type, SPR
Sequence of GDP-bound HRAS wild-type protein (P01112 whole entry): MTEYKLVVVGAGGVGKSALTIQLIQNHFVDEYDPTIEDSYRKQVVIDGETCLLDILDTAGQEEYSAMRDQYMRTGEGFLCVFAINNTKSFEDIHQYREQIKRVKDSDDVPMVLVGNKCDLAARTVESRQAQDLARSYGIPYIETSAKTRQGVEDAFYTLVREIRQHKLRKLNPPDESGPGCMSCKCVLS

Sequence of GDP-bound NRAS wild-type protein (P01111 whole entry): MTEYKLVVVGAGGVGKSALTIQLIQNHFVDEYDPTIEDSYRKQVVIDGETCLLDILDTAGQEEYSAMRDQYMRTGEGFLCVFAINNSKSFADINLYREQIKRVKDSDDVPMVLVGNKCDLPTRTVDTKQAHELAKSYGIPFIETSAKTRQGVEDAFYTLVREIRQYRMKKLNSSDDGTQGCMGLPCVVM

| SMILES | NRAS/KRAS (ratio of KD value for NRAS to KD value for KRAS) [1] | HRAS/KRAS (ratio of KD value for HRAS to KD value for KRAS) [2] |
| --- | --- | --- |
| CCCOC[C@H]1C(=O)N[C@@H]([C@@H](C)CC)C(=O)N(C)CC(=O)N(C)[C@H]2C/C=C\CCN(C2=O)[C@@H](Cc2ccc(C(F)(F)F)cc2)C(=O)N(C)CC(=O)N[C@@H](CCc2cc(F)c(C(F)(F)F)c(F)c2)C(=O)N2CC(F)(F)C[C@H]2C(=O)NC2(CC(C)(C)C2)C(=O)N(C)[C@@H](C2CCCC2)C(=O)N(C)[C@H](C(=O)N(C)C)CC(=O)N1C [PP1718] | AA (a compound having 20 or more is denoted as AA) | A (a compound having 10 or more and less than 20 is denoted as A) |
| CCCN(C)C(=O)[C@@H]1CC(=O)N(C)[C@@H](CC(F)F)C(=O)N[C@@H]([C@@H](C)CC)C(=O)N(C)CC(=O)N(C)[C@H]2C/C=C\CCN(C2=O)[C@@H](Cc2ccc(C(F)(F)F)cc2)C(=O)N(C)CC(=O)N[C@@H](CCc2cc(F)c(C(F)(F)F)c(F)c2)C(=O)N2CCC[C@H]2C(=O)NC2(CC(C)(C)C2)C(=O)N(C)[C@@H](C2CCCC2)C(=O)N1C [PP1721] | A (a compound having 10 or more and less than 20 is denoted as A) | A (a compound having 10 or more and less than 20 is denoted as A) |
| CC[C@H](C)[C@@H]1NC(=O)[C@H](CC(F)(F)F)N(C)C(=O)C[C@@H](C(=O)N(C)C)N(C)C(=O)[C@H](C2CCCC2)N(C)C(=O)C2(CC(C)(C)C2)NC(=O)[C@@H]2CCCN2C(=O)[C@H](CCc2cc(F)c(C(F)(F)F)c(F)c2)NC(=O)CN(C)C(=O)[C@H](Cc2ccc(C(F)(F)F)cc2)N2CC/C=C\C[C@@H](C2=O)N(C)C(=O)CN(C)C1=O [PP1722] | AA (a compound having 20 or more is denoted as AA) | A (a compound having 10 or more and less than 20 is denoted as A) |
| CC[C@H](C)[C@@H]1NC(=O)[C@H](CC(C)C)N(C)C(=O)C[C@@H](C(=O)N(C)C)N(C)C(=O)[C@H](C2CCCC2)N(C)C(=O)C2(CC(C)(C)C2)NC(=O)[C@@H]2CCCN2C(=O)[C@H](CCc2cc(F)c(C(F)(F)F)c(F)c2)NC(=O)CN(C)C(=O)[C@H](Cc2ccc(C(F)(F)F)cc2)N2CC/C=C\C[C@@H](C2=O)N(C)C(=O)CN(C)C1=O [PP1727] | A (a compound having 10 or more and less than 20 is denoted as A) | A (a compound having 10 or more and less than 20 is denoted as A) |
| CC[C@H](C)[C@@H]1NC(=O)[C@H](CC2CCC2)N(C)C(=O)C[C@@H](C(=O)N(C)C)N(C)C(=O)[C@H](C2CCCC2)N(C)C(=O)C2(CC(C)(C)C2)NC(=O)[C@@H]2CCCN2C(=O)[C@H](CCc2cc(F)c(C(F)(F)F)c(F)c2)NC(=O)CN(C)C(=O)[C@H](Cc2ccc(C(F)(F)F)cc2)N2CC/C=C\C[C@@H](C2=O)N(C)C(=O)CN(C)C1=O [PP1728] | A (a compound having 10 or more and less than 20 is denoted as A) | A (a compound having 10 or more and less than 20 is denoted as A) |
| CCCN(C)C(=O)[C@@H]1CC(=O)N(C)[C@@H](COC)C(=O)N[C@@H]([C@@H](C)CC)C(=O)N(C)CC(=O)N(C)[C@H]2C/C=C\CCN(C2=O)[C@@H](Cc2ccc(C(F)(F)F)cc2)C(=O)N(C)CC(=O)N[C@@H](CCc2cc(F)c(C(F)(F)F)c(F)c2)C(=O)N2CCC[C@H]2C(=O)NC2(CC(C)(C)C2)C(=O)N(C)[C@@H](C2CCCC2)C(=O)N1C [PP1729] | AA (a compound having 20 or more is denoted as AA) | A (a compound having 10 or more and less than 20 is denoted as A) |
| CCCN(C)C(=O)[C@@H]1CC(=O)N(C)[C@@H](C)C(=O)N[C@@H]([C@@H](C)CC)C(=O)N(C)CC(=O)N(C)[C@H]2C/C=C\CCN(C2=O)[C@@H](Cc2ccc(C(F)(F)F)cc2)C(=O)N(C)CC(=O)N[C@@H](CCc2cc(F)c(C(F)(F)F)c(F)c2)C(=O)N2C[C@H](OCC)C[C@H]2C(=O)NC2(CC(F)(F)C2)C(=O)N(C)[C@@H](C2CCCC2)C(=O)N1C [PP1731] | A (a compound having 10 or more and less than 20 is denoted as A) | A (a compound having 10 or more and less than 20 is denoted as A) |
| CCCN(C)C(=O)[C@@H]1CC(=O)N(C)[C@@H](CC)C(=O)N[C@@H]([C@@H](C)CC)C(=O)N(C)CC(=O)N(C)[C@H]2C/C=C\CCN(C2=O)[C@@H](Cc2ccc(C(F)(F)F)cc2)C(=O)N(C)CC(=O)N[C@@H](CCc2cc(F)c(C(F)(F)F)c(F)c2)C(=O)N2C[C@H](OCC)C[C@H]2C(=O)NC2(CC(F)(F)C2)C(=O)N(C)[C@@H](C2CCCC2)C(=O)N1C [PP1732] | AA (a compound having 20 or more is denoted as AA) | A (a compound having 10 or more and less than 20 is denoted as A) |
| CCCN(C)C(=O)[C@@H]1CC(=O)N(C)[C@@H](CC(F)F)C(=O)N[C@@H]([C@@H](C)CC)C(=O)N(C)CC(=O)N(C)[C@H]2C/C=C\CCN(C2=O)[C@@H](Cc2ccc(C(F)(F)F)cc2)C(=O)N(C)CC(=O)N[C@@H](CCc2cc(F)c(C(F)(F)F)c(F)c2)C(=O)N2C[C@H](OCC)C[C@H]2C(=O)NC2(CC(F)(F)C2)C(=O)N(C)[C@@H](C2CCCC2)C(=O)N1C [PP1733] | A (a compound having 10 or more and less than 20 is denoted as A) | A (a compound having 10 or more and less than 20 is denoted as A) |
| CCCN(C)C(=O)[C@@H]1CC(=O)N(C)[C@@H](CC(F)(F)F)C(=O)N[C@@H]([C@@H](C)CC)C(=O)N(C)CC(=O)N(C)[C@H]2C/C=C\CCN(C2=O)[C@@H](Cc2ccc(C(F)(F)F)cc2)C(=O)N(C)CC(=O)N[C@@H](CCc2cc(F)c(C(F)(F)F)c(F)c2)C(=O)N2C[C@H](OCC)C[C@H]2C(=O)NC2(CC(F)(F)C2)C(=O)N(C)[C@@H](C2CCCC2)C(=O)N1C [PP1734] | A (a compound having 10 or more and less than 20 is denoted as A) | A (a compound having 10 or more and less than 20 is denoted as A) |
| CCC[C@H]1C(=O)N[C@@H]([C@@H](C)CC)C(=O)N(C)CC(=O)N(C)[C@H]2C/C=C\CCN(C2=O)[C@@H](Cc2ccc(C(F)(F)F)cc2)C(=O)N(C)CC(=O)N[C@@H](CCc2cc(F)c(C(F)(F)F)c(F)c2)C(=O)N2C[C@H](OCC)C[C@H]2C(=O)NC2(CC(F)(F)C2)C(=O)N(C)[C@@H](C2CCCC2)C(=O)N(C)[C@H](C(=O)N(C)CC)CC(=O)N1C [PP1735] | AA (a compound having 20 or more is denoted as AA) | A (a compound having 10 or more and less than 20 is denoted as A) |
| CCC[C@H]1C(=O)N[C@@H]([C@@H](C)CC)C(=O)N(C)CC(=O)N(C)[C@H]2C/C=C\CCN(C2=O)[C@@H](Cc2ccc(C(F)(F)F)cc2)C(=O)N(C)CC(=O)N[C@@H](CCc2cc(F)c(C(F)(F)F)c(F)c2)C(=O)N2C[C@H](OCC)C[C@H]2C(=O)NC2(CC(F)(F)C2)C(=O)N(C)[C@@H](C2CCCC2)C(=O)N(C)[C@H](C(=O)N(C)CCC)CC(=O)N1C [PP1736] | A (a compound having 10 or more and less than 20 is denoted as A) | A (a compound having 10 or more and less than 20 is denoted as A) |
| C#CC[C@H]1C(=O)N[C@@H]([C@@H](C)CC)C(=O)N(C)CC(=O)N(C)[C@H]2C/C=C\CCN(C2=O)[C@@H](Cc2ccc(C(F)(F)F)cc2)C(=O)N(C)CC(=O)N[C@@H](CCc2cc(F)c(C(F)(F)F)c(F)c2)C(=O)N2C[C@H](OCC)C[C@H]2C(=O)NC2(CC(F)(F)C2)C(=O)N(C)[C@@H](C2CCCC2)C(=O)N(C)[C@H](C(=O)N(C)CCC)CC(=O)N1C [PP1737] | A (a compound having 10 or more and less than 20 is denoted as A) | A (a compound having 10 or more and less than 20 is denoted as A) |
| CCO[C@@H]1C[C@H]2C(=O)NC3(CC(F)(F)C3)C(=O)N(C)[C@@H](C3CCCC3)C(=O)N(C)[C@H](C(=O)N(C)CC)CC(=O)N(C)[C@@H](CC3CC3)C(=O)N[C@@H]([C@@H](C)CC)C(=O)N(C)CC(=O)N(C)[C@H]3C/C=C\CCN(C3=O)[C@@H](Cc3ccc(C(F)(F)F)cc3)C(=O)N(C)CC(=O)N[C@@H](CCc3cc(F)c(C(F)(F)F)c(F)c3)C(=O)N2C1 [PP1738] | AA (a compound having 20 or more is denoted as AA) | A (a compound having 10 or more and less than 20 is denoted as A) |
| CCCN(C)C(=O)[C@@H]1CC(=O)N(C)[C@@H](CC2CC2)C(=O)N[C@@H]([C@@H](C)CC)C(=O)N(C)CC(=O)N(C)[C@H]2C/C=C\CCN(C2=O)[C@@H](Cc2ccc(C(F)(F)F)cc2)C(=O)N(C)CC(=O)N[C@@H](CCc2cc(F)c(C(F)(F)F)c(F)c2)C(=O)N2C[C@H](OCC)C[C@H]2C(=O)NC2(CC(F)(F)C2)C(=O)N(C)[C@@H](C2CCCC2)C(=O)N1C [PP1739] | AA (a compound having 20 or more is denoted as AA) | AA (a compound having 20 or more is denoted as AA) |
| CCCC[C@H]1C(=O)N[C@@H]([C@@H](C)CC)C(=O)N(C)CC(=O)N(C)[C@H]2C/C=C\CCN(C2=O)[C@@H](Cc2ccc(C(F)(F)F)cc2)C(=O)N(C)CC(=O)N[C@@H](CCc2cc(F)c(C(F)(F)F)c(F)c2)C(=O)N2C[C@H](OCC)C[C@H]2C(=O)NC2(CC(F)(F)C2)C(=O)N(C)[C@@H](C2CCCC2)C(=O)N(C)[C@H](C(=O)N(C)C)CC(=O)N1C [PP1740] | A (a compound having 10 or more and less than 20 is denoted as A) | A (a compound having 10 or more and less than 20 is denoted as A) |
